# Measurements published in ChEMBL document CHEMBL3045239, “Synthesis and antimicrobial evaluation of novel benzo[b]thiophenes comprising -lactam nucleus” (2012).
# Assays:
# Type in all cases: functional
# Staphylococcus aureus = experiment: Antimicrobial activity against Staphylococcus aureus at 1 mg/ml after 24 hr by agar well diffusion method; conditions: read-out: DIZ
# Bacillus subtilis = experiment: Antimicrobial activity against Bacillus subtilis at 1 mg/ml after 24 hr by agar well diffusion method; conditions: read-out: DIZ
# Escherichia coli = experiment: Antimicrobial activity against Escherichia coli at 1 mg/ml after 24 hr by agar well diffusion method; conditions: read-out: DIZ
# Pseudomonas aeruginosa = experiment: Antimicrobial activity against Pseudomonas aeruginosa at 1 mg/ml after 24 hr by agar well diffusion method; conditions: read-out: DIZ
# Micrococcus luteus = experiment: Antimicrobial activity against Micrococcus luteus at 1 mg/ml after 24 hr by agar well diffusion method; conditions: read-out: DIZ
# Candida albicans = experiment: Antimicrobial activity against Candida albicans at 200 ug/ml after 7 days by agar plate method; conditions: 168 h
# Fusarium solani = experiment: Antimicrobial activity against Fusarium solani at 200 ug/ml after 7 days by agar plate method; conditions: 168 h
# Trichophyton longifusum = experiment: Antimicrobial activity against Trichophyton longifusum at 200 ug/ml after 7 days by agar plate method; conditions: 168 h
# Microsporum canis = experiment: Antimicrobial activity against Arthroderma otae at 200 ug/ml after 7 days by agar plate method; conditions: 168 h
Structure (SMILES),zone of inhibition at 1000 µg/mL (Staphylococcus aureus),zone of inhibition at 1000 µg/mL (Bacillus subtilis),zone of inhibition at 1000 µg/mL (Escherichia coli),zone of inhibition at 1000 µg/mL (Pseudomonas aeruginosa),zone of inhibition at 1000 µg/mL (Micrococcus luteus),inhibition at 200 µg/mL (Candida albicans),inhibition at 200 µg/mL (Fusarium solani),inhibition at 200 µg/mL (Trichophyton longifusum),inhibition at 200 µg/mL (Microsporum canis)
Cc1nn(-c2ccccc2)c(Cl)c1/C=C/C1=Cc2c(sc(N3C(=O)[C@@H](Oc4ccc(Cl)cc4Cl)[C@H]3c3ccc([N+](=O)[O-])cc3)c2C#N)C(C)(C)C1 (relative stereo),< 10 mm,11.2 mm,14 mm,12.1 mm,< 10 mm,,,,
Cc1nn(-c2ccccc2)c(Cl)c1/C=C/C1=Cc2c(sc(N3C(=O)[C@@H](Oc4ccc(Cl)cc4Cl)[C@H]3c3ccccc3Cl)c2C#N)C(C)(C)C1 (relative stereo),11.3 mm,18.7 mm,17.8 mm,10.6 mm,13.1 mm,94%,40%,92%,
COc1ccc([C@@H]2[C@H](Oc3ccc(Cl)cc3Cl)C(=O)N2c2sc3c(c2C#N)C=C(/C=C/c2c(C)nn(-c4ccccc4)c2Cl)CC3(C)C)cc1 (relative stereo),11.3 mm,12.5 mm,15.6 mm,11.9 mm,< 10 mm,30%,25%,,
Cc1nn(-c2ccccc2)c(Cl)c1/C=C/C1=Cc2c(sc(N3C(=O)[C@@H](Oc4ccc(Cl)cc4Cl)[C@H]3c3ccc(Cl)c(Cl)c3)c2C#N)C(C)(C)C1 (relative stereo),< 10 mm,11.2 mm,12 mm,10.8 mm,< 10 mm,,,,
O=C(N[C@H](CO)[C@H](O)c1ccc([N+](=O)[O-])cc1)C(Cl)Cl [CHLORAMPHENICOL],16.4 mm,18.8 mm,17 mm,19.6 mm,17.2 mm,,,,
COc1ccc([C@@H]2[C@H](Oc3ccc(Cl)cc3Cl)C(=O)N2c2sc3c(c2C#N)C=C(/C=C/c2c(C)nn(-c4ccccc4)c2Cl)CC3(C)C)cc1O (relative stereo),< 10 mm,< 10 mm,13.7 mm,< 10 mm,< 10 mm,,,,
Cc1nn(-c2ccccc2)c(Cl)c1/C=C/C1=Cc2c(sc(N3C(=O)[C@@H](Oc4ccc(Cl)cc4Cl)[C@H]3c3ccc(Cl)cc3)c2C#N)C(C)(C)C1 (relative stereo),10.6 mm,12.4 mm,13.9 mm,11.2 mm,< 10 mm,,,35%,
Cc1nn(-c2ccccc2)c(Cl)c1/C=C/C1=Cc2c(sc(N3C(=O)[C@@H](Oc4ccc(Cl)cc4Cl)[C@H]3c3ccccc3)c2C#N)C(C)(C)C1 (relative stereo),< 10 mm,11.7 mm,14.2 mm,11.7 mm,< 10 mm,,,40%,50%
Clc1ccc(COC(Cn2ccnc2)c2ccc(Cl)cc2Cl)c(Cl)c1 (stereo not given) [MICONAZOLE],,,,,,90%,90%,100%,90%
Cc1nn(-c2ccccc2)c(Cl)c1/C=C/C1=Cc2c(sc(N3C(=O)[C@@H](Oc4ccc(Cl)cc4Cl)[C@H]3c3ccccc3O)c2C#N)C(C)(C)C1 (relative stereo),12.3 mm,18.9 mm,17.6 mm,11.6 mm,< 10 mm,91%,,89%,
Cc1nn(-c2ccccc2)c(Cl)c1/C=C/C1=Cc2c(sc(N3C(=O)[C@@H](Oc4ccc(Cl)cc4Cl)[C@H]3c3ccc(N(C)C)cc3)c2C#N)C(C)(C)C1 (relative stereo),< 10 mm,< 10 mm,14.6 mm,< 10 mm,< 10 mm,,,,
COc1cc([C@@H]2[C@H](Oc3ccc(Cl)cc3Cl)C(=O)N2c2sc3c(c2C#N)C=C(/C=C/c2c(C)nn(-c4ccccc4)c2Cl)CC3(C)C)cc(OC)c1OC,10.6 mm,11.6 mm,12.9 mm,11.7 mm,< 10 mm,50%,,,
C=CC1=C(C(=O)O)N2C(=O)[C@@H](NC(=O)/C(=N\OCC(=O)O)c3csc(N)n3)[C@H]2SC1 [CEFIXIME],36.1 mm,28.7 mm,30 mm,17.8 mm,34.1 mm,,,,
